ChEMBL document CHEMBL1201862, “PubChem BioAssay data set” (2004)
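A five-concentration, 48-hour dose response in 96-well plates underlies each endpoint, interpolated linearly between surrounding concentrations. GI50: concentration for 50% inhibition of growth.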 Activity calls are given as the source filed them. No stated cut-off is given here; in the data, active = GI50 up to about 1.1 µM and inactive = higher.

Columns and labels:
Test in all cases: NCI tumour cell line growth inhibition, 48 h
786-0 = test system: 786-0
A498 = test system: A498
A549 = test system: A549
ACHN = test system: ACHN
BT-549 = test system: BT-549
CAKI-1 = test system: CAKI-1
CCRF-CEM = test system: CCRF-CEM
COLO 205 = test system: COLO 205
DU-145 = test system: DU-145
EKVX = test system: EKVX
HCC 2998 = test system: HCC 2998
HCT-116 = test system: HCT-116
HCT-15 = test system: HCT-15
HL-60 = test system: HL-60
HOP-62 = test system: HOP-62
HOP-92 = test system: HOP-92
HT-29 = test system: HT-29
Hs-578T = test system: Hs-578T
IGROV-1 = test system: IGROV-1
K562 = test system: K562
KM12 = test system: KM12
LOX IMVI = test system: LOX IMVI
M14 = test system: M14
MCF7 = test system: MCF7
MDA-MB-231 = test system: MDA-MB-231
MDA-MB-435 = test system: MDA-MB-435
MDA-N = test system: MDA-N
MOLT-4 = test system: MOLT-4
Malme-3M = test system: Malme-3M
NCI-H226 = test system: NCI-H226
NCI-H23 = test system: NCI-H23
NCI-H460 = test system: NCI-H460
NCI-H522 = test system: NCI-H522
NCI/ADR-RES = test system: NCI/ADR-RES
OVCAR-3 = test system: OVCAR-3
OVCAR-4 = test system: OVCAR-4
OVCAR-5 = test system: OVCAR-5
OVCAR-8 = test system: OVCAR-8
PC-3 = test system: PC-3
RPMI-8226 = test system: RPMI-8226
RXF 393 = test system: RXF 393
SF-268 = test system: SF-268
SF-295 = test system: SF-295
SF-539 = test system: SF-539
SK-MEL-28 = test system: SK-MEL-28
SK-MEL-2 = test system: SK-MEL-2
SK-MEL-5 = test system: SK-MEL-5
SK-OV-3 = test system: SK-OV-3
SN12C = test system: SN12C
SNB-19 = test system: SNB-19
SNB-75 = test system: SNB-75
SR = test system: SR
SW-620 = test system: SW-620
T47D = test system: T47D
TK-10 = test system: TK-10
U-251 = test system: U-251
UACC-257 = test system: UACC-257
UACC-62 = test system: UACC-62
UO-31 = test system: UO-31

Cc1ccnc2nc(-c3ccc(Cl)cc3)cc(O)c12
GI50 (786-0): 4.46 µM (inactive) | GI50 (A498): 3.65 µM (inactive) | GI50 (A549): 9.08 µM (inactive) | GI50 (ACHN): > 24.9 µM (inactive) | GI50 (BT-549): > 100 µM (inactive) | GI50 (CAKI-1): 6.68 µM (inactive) | GI50 (CCRF-CEM): 4.63 µM (inactive) | GI50 (COLO 205): 2.33 µM (inactive) | GI50 (DU-145): 13.5 µM (inactive) | GI50 (EKVX): 29.7 µM (inactive) | GI50 (HCC 2998): > 27.4 µM (inactive) | GI50 (HCT-116): 4.46 µM (inactive) | GI50 (HCT-15): 2.32 µM | GI50 (HL-60): 1.58 µM (inactive) | GI50 (HOP-62): 8.41 µM (inactive) | GI50 (HOP-92): 2.17 µM (inactive) | GI50 (HT-29): 3.23 µM (inactive) | GI50 (Hs-578T): 3.9 µM (inactive) | GI50 (IGROV-1): 3.01 µM (inactive) | GI50 (K562): 1.89 µM (inactive) | GI50 (KM12): 3.16 µM (inactive) | GI50 (LOX IMVI): 4.13 µM (inactive) | GI50 (M14): 8.63 µM (inactive) | GI50 (MCF7): 2.94 µM (inactive) | GI50 (MDA-MB-231): 14.8 µM (inactive) | GI50 (MDA-MB-435): 0.578 µM (active) | GI50 (MDA-N): 0.752 µM (active) | GI50 (MOLT-4): 3.99 µM (inactive) | GI50 (Malme-3M): 6.81 µM (inactive) | GI50 (NCI-H226): 5.16 µM (inactive) | GI50 (NCI-H23): 6.31 µM (inactive) | GI50 (NCI-H460): 3.85 µM (inactive) | GI50 (NCI-H522): 2.58 µM (inactive) | GI50 (NCI/ADR-RES): 3.88 µM (inactive) | GI50 (OVCAR-3): 4.89 µM (inactive) | GI50 (OVCAR-4): > 23.8 µM (inactive) | GI50 (OVCAR-5): > 100 µM (inactive) | GI50 (OVCAR-8): > 27 µM (inactive) | GI50 (PC-3): 2.89 µM (inactive) | GI50 (RPMI-8226): 2.94 µM (inactive) | GI50 (RXF 393): 8.45 µM (inactive) | GI50 (SF-268): 28.4 µM (inactive) | GI50 (SF-295): 4.38 µM (inactive) | GI50 (SF-539): 5.74 µM (inactive) | GI50 (SK-MEL-28): 7.78 µM (inactive) | GI50 (SK-MEL-2): 72.4 µM (inactive) | GI50 (SK-MEL-5): 3.13 µM (inactive) | GI50 (SK-OV-3): 3.86 µM (inactive) | GI50 (SN12C): 8.2 µM (inactive) | GI50 (SNB-19): 19.1 µM (inactive) | GI50 (SNB-75): 2.17 µM (inactive) | GI50 (SR): 1.41 µM (inactive) | GI50 (SW-620): 3.35 µM (inactive) | GI50 (T47D): > 24.5 µM (inactive) | GI50 (TK-10): > 60.5 µM (inactive) | GI50 (U-251): 4.07 µM (inactive) | GI50 (UACC-257): > 100 µM (inactive) | GI50 (UACC-62): 3.01 µM (inactive) | GI50 (UO-31): 13.1 µM (inactive)

Cc1c(N)nc([C@H](CC(N)=O)NC[C@H](N)C(N)=O)nc1C(=O)N[C@H](C(=O)N[C@H](C)[C@@H](O)CC(=O)N[C@H](C(=O)NC(O[C@@H]1O[C@@H](C)[C@@H](N)[C@@H](O)[C@H]1O)C(O)c1nc(-c2nc(C(=O)NCCC[S+](C)C)cs2)cs1)[C@@H](C)O)[C@H](O[C@@H]1O[C@@H](CO)[C@@H](O)[C@H](O)[C@@H]1O[C@H]1O[C@H](CO)[C@@H](O)[C@H](OC(N)=O)[C@@H]1O)c1c[nH]cn1 (some centres not stated)
GI50 (786-0): 13.9 µM (inactive) | GI50 (A498): 67.1 µM (inactive) | GI50 (A549): 19.7 µM (inactive) | GI50 (ACHN): 0.773 µM (active) | GI50 (BT-549): > 100 µM (inactive) | GI50 (CAKI-1): 73.8 µM (inactive) | GI50 (CCRF-CEM): > 100 µM (inactive) | GI50 (COLO 205): > 100 µM (inactive) | GI50 (DU-145): > 100 µM (inactive) | GI50 (EKVX): > 100 µM (inactive) | GI50 (HCC 2998): 8.39 µM (inactive) | GI50 (HCT-116): 15.1 µM (inactive) | GI50 (HCT-15): 34.4 µM | GI50 (HL-60): > 100 µM (inactive) | GI50 (HOP-62): 5.18 µM (inactive) | GI50 (HOP-92): 24.6 µM (inactive) | GI50 (HT-29): 82.8 µM (inactive) | GI50 (Hs-578T): 6.17 µM (inactive) | GI50 (IGROV-1): 33.3 µM (inactive) | GI50 (KM12): 97.1 µM (inactive) | GI50 (LOX IMVI): 15.2 µM (inactive) | GI50 (M14): > 100 µM (inactive) | GI50 (MCF7): 39.4 µM (inactive) | GI50 (MDA-MB-231): > 100 µM (inactive) | GI50 (MDA-MB-435): > 100 µM (inactive) | GI50 (MDA-N): > 100 µM (inactive) | GI50 (MOLT-4): 38.6 µM (inactive) | GI50 (Malme-3M): 37.2 µM (inactive) | GI50 (NCI-H226): 21 µM (inactive) | GI50 (NCI-H23): > 100 µM (inactive) | GI50 (NCI-H460): 2.79 µM (inactive) | GI50 (NCI-H522): 15.1 µM (inactive) | GI50 (NCI/ADR-RES): 33.3 µM (inactive) | GI50 (OVCAR-3): 95.3 µM (inactive) | GI50 (OVCAR-4): > 100 µM (inactive) | GI50 (OVCAR-5): > 100 µM (inactive) | GI50 (OVCAR-8): 48.9 µM (inactive) | GI50 (PC-3): 65 µM (inactive) | GI50 (RPMI-8226): > 100 µM (inactive) | GI50 (RXF 393): 25.8 µM (inactive) | GI50 (SF-268): 39.2 µM (inactive) | GI50 (SF-295): 5.46 µM (inactive) | GI50 (SF-539): 2.2 µM (inactive) | GI50 (SK-MEL-28): > 100 µM (inactive) | GI50 (SK-MEL-2): > 100 µM (inactive) | GI50 (SK-MEL-5): 28.8 µM (inactive) | GI50 (SK-OV-3): > 100 µM (inactive) | GI50 (SN12C): > 100 µM (inactive) | GI50 (SNB-19): > 100 µM (inactive) | GI50 (SNB-75): 18.3 µM (inactive) | GI50 (SR): 0.0109 µM (active) | GI50 (SW-620): > 100 µM (inactive) | GI50 (T47D): > 100 µM (inactive) | GI50 (TK-10): > 100 µM (inactive) | GI50 (U-251): 92.5 µM (inactive) | GI50 (UACC-257): > 100 µM (inactive) | GI50 (UACC-62): 35.4 µM (inactive) | GI50 (UO-31): 26.7 µM (inactive)
